Experiments:
[1] = system: BAX and BCL-2 proteins in HCT116-DoxR cells; assay: BAX and BCL-2 protein expression by Western Blot; assay type: cell-based, human; details: 48 h at IC50; normalized to 0.1% DMSO control and β-actin
Description: 0.1% DMSO was used as a negative control and β-actin protein was used for the normalization of the total protein quantity.
HCT116-DoxR cells were seeded in a 25 cm^2 T-flask at a density of 2 × 10^6 cells/T-flask. […] Cells were incubated for 48 h and later were washed and collected using cold PBS 1× and a cell scraper. […]
After the storage period, the samples were submitted 5 ultrasound (Elma sonicator, D-78224 Singen/Htw, Germany) cycles on ice (2 min and 30 s on ultrasound followed by 1 min period on ice) and then centrifuged at 10,000 × g for 5 min. The supernatant was transferred to a 1.5 mL Eppendorf tube, and the total protein extracted was quantified with Pierce 660 nm Protein Assay kit (ThermoFisher Scientific, MA, USA).
In the SDS-PAGE analysis of BAX and BCL-2 proteins, 20 μg of protein was applied into a 10% polyacrylamide gel as well as NZYColour protein marker II and transferred to a 0.45 μm polyvinylidene fluoride (PVDF) membrane (GE Healthcare Life Sciences, Germany). […] Protein quantification was done by densitometry with ImageJ software.

HCT116-DoxR 3D spheroids = assay: CellTox Green cytotoxicity assay in 3D spheroids; assay type: cell-based, human; details: 4.8 μM Cu1a or 5.8 μM Cu1b; 3, 24, 48, 72 h
Description: Moreover, over time a detachment of death cells from the spheroids is observed (with green cells in the periphery of the outer region of the spheroids more clearly visualized at 72 h of exposure; Figure 5B and Supplementary Figure S16B,C).
HCT116-DoxR cells were seeded at 5 × 10^4 cells/mL in super low Attachment 96-well plates (NunclonSphera U-Shaped-Bottom Microplate, Thermo Fisher Scientific, Waltham, MA, USA) and incubated at 37 °C in a humidified atmosphere with 5% (v/v) CO2, to allow spheroids formation and growth.[60],[105] To perform the cell viability study, two methods were used: the MTS assay and the CellTox assay.
For the CellTox assay, HCT116DoxR spheroids grown for 6 to 9 days were used. […] CellTox Green dye is an asymmetric cyanine dye that enters cells with compromised membrane integrity and binds to DNA, which enhances its fluorescence. […] Therefore, higher levels of fluorescence are associated with a higher number of death cells.[106] […] After 3, 24, 48, and 72 h of incubation, fluorescence images were acquired with Ti–U Eclipse inverted microscope (Nikon), with a FITC filter (excitation at 465–495 nm, in the blue region, and emission at 515–555 nm, in the green region).
The software ImageJ was used for fluorescence quantification in which the Corrected Total Cell Fluorescence (CTCF, eq 6) was determined. […]

[2] = system: chicken embryo chorioallantoic membrane; assay: Ex-ovo CAM assay: in vivo toxicity and angiogenic potential; details: IC50 concentrations; for angiogenic potential (tertiary veins): 24 h, normalized to DMSO; for in vivo toxicity (embryo death): chicken embryo
Source text: The ex-ovo Chorioallantoic Membrane (CAM) assay has become a preclinical model of choice for assessing the cytotoxicity of Cu(II) complexes and in vivo angiogenesis.[38] The CAM is an extraembryonic membrane formed by mesodermal layers, highly vascularized despite being compromised, making it ideal for studying angiogenesis and antiangiogenesis in response to biomolecules and drugs.[97] […] In these assays, highly vascularized regions surrounded by O-rings on the chorioallantoic membrane of chicken embryos were studied. […] Eight embryos were used as biological replicates. Images were taken immediately after exposure to the complexes and control (0 h) and 24 h later. The values were normalized to the number of tertiary veins after exposure to the DMSO control and are represented in Figures 19 and S25.
To assess the angiogenic potential of the copper complexes, an ex-ovo CAM (chick chorioallantoic membrane) in vivo model using chicken eggs was performed. Fertilized eggs were opened, and the embryos and blood vessels were stabilized for 24 h in an incubator at 37 °C in perforated individual weighing boxes. After incubation, 4 silicone O-rings were placed on areas with a high number of blood vessels. […] The area limited by each O-ring was photographed immediately after the addition of the complexes and after 24 and 48 h of incubation at 37 °C. The images were captured with a digital USB microscope camera (Opti-Tekscope OT-V1). Image analysis was performed using ImageJ software.

Row | SMILES | BAX/BCL-2 ratio higher than control [1] | cell death in spheroids (CellTox Green fluorescence) (HCT116-DoxR 3D spheroids) | angiogenic potential (tertiary veins) [2] | in vivo toxicity (embryo death) [2]
1 | [Cl][Cu-3]12([Cl])[n+]3ccccc3-c3cc(-c4cccc5ccccc45)cc([n+]31)-c1cccc[n+]12 [Cu1a] | 1.80 × | the increase of cell death | did not show significant pro- or antiangiogenic properties | do not show in vivo toxicity in a chicken embryo
2 | [Cl][Cu-3]12([Cl])[n+]3ccccc3-c3cc(-c4ccc5ccccc5c4)cc([n+]31)-c1cccc[n+]12 [Cu1b] | 1.65 × | the increase of cell death | did not show significant pro- or antiangiogenic properties | do not show in vivo toxicity in a chicken embryo
